The assay deals with Ramos. As to the kind of experiment: Cytotoxicity against human Ramos B cells after 72 hrs by MTT assay. In kind it is functional, cell-based. On the technique in general: Tetrazolium assays rely on reduction of a dye to a coloured formazan, in cell work by metabolically active cells.

These results are taken from ChEMBL document CHEMBL1157975, “Diterpenoids from the roots of Euphorbia fischeriana” (J Nat Prod, 2006).

In brackets after ≈: the same amount, converted by molar mass.

In general, IC50 refers to the point on the concentration scale where inhibition reaches its midpoint.

In the case of `CCCCCCCCCC(=O)O[C@@]12C[C@@H](C)[C@]3(O)[C@@H](C=C(CO)C[C@@]4(O)C(=O)C(C)=C[C@@H]34)[C@@H]1C2(C)C`, the IC50 came to 0.0051 µg/mL (≈ 0.0101 µM). The figure for `CC(=O)OCC1=C2[C@H]3O[C@]34CC[C@@H]3C(C)(C)CCC[C@@]3(C)[C@@H]4[C@H]3O[C@@]23OC1=O` [17-ACETOXYJOLKINOLIDE B] is 0.023 µg/mL (≈ 0.0592 µM); for `CC(=O)O[C@@]12C[C@@H](C)[C@@]3(O)[C@@H](C=C(CO)C[C@]4(O)C(=O)C(C)=C[C@@H]34)[C@@H]1C2(C)C` [PROSTRATIN] it is 0.056 µg/mL (≈ 0.143 µM).
